Source: ChEMBL document CHEMBL4507289, “Data for DCP probe GSM1” (2021)

Assays:
[1] = system: Epidermal growth factor receptor (Homo sapiens), P00533 [L858R,T790M]; details: Compound concentration 1000.0 nM
[2] = biological target: TGF-beta receptor type-1 (Homo sapiens) (UniProt P36897); details: Compound concentration 1000.0 nM
[3] = biological target: Homeodomain-interacting protein kinase 2 (Homo sapiens) (UniProt Q9H2X6); details: Compound concentration 1000.0 nM
[4] = biological target: Serine/threonine-protein kinase 32A (Homo sapiens) (UniProt Q8WU08); details: Compound concentration 1000.0 nM
[5] = biological target: Leukocyte tyrosine kinase receptor (Homo sapiens) (UniProt P29376); details: Compound concentration 1000.0 nM
[6] = biological target: Serine/threonine-protein kinase PAK 3 (Homo sapiens) (UniProt O75914); details: Compound concentration 1000.0 nM
[7] = biological target: Cyclin-dependent kinase 4 (Homo sapiens) (UniProt P11802); details: Compound concentration 1000.0 nM
Chain of Cyclin-dependent kinase 4 (Homo sapiens) (P11802 whole entry): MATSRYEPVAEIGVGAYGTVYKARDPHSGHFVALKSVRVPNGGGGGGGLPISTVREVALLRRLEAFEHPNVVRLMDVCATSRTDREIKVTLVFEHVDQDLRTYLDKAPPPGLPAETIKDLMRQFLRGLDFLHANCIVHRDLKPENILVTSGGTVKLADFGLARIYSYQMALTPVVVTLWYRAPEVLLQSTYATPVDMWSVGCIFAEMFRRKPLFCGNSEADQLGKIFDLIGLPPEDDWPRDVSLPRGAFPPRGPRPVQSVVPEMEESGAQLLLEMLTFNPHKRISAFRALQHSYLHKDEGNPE

[8] = biological target: MAP kinase-interacting serine/threonine-protein kinase 1 (Homo sapiens) (UniProt Q9BUB5); details: Compound concentration 1000.0 nM
[9] = biological target: Serine/threonine-protein kinase DCLK3 (Homo sapiens) (UniProt Q9C098); details: Compound concentration 1000.0 nM
[10] = biological target: Tyrosine-protein kinase Fgr (Homo sapiens) (UniProt P09769); details: Compound concentration 1000.0 nM
[11] = biological target: Cyclin-dependent kinase-like 3 (Homo sapiens) (UniProt Q8IVW4); details: Compound concentration 1000.0 nM
[12] = biological target: Serine/threonine-protein kinase PAK 2 (Homo sapiens) (UniProt Q13177); details: Compound concentration 1000.0 nM
[13] = biological target: Phosphatidylinositol 4,5-bisphosphate 3-kinase catalytic subunit delta isoform (Homo sapiens) (UniProt O00329); details: Compound concentration 1000.0 nM
[14] = biological target: Casein kinase I isoform alpha-like (Homo sapiens) (UniProt Q8N752); details: Compound concentration 1000.0 nM
[15] = biological target: Ephrin type-A receptor 8 (Homo sapiens) (UniProt P29322); details: Compound concentration 1000.0 nM
[16] = biological target: Serine/threonine-protein kinase MRCK gamma (Homo sapiens) (UniProt Q6DT37); details: Compound concentration 1000.0 nM
[17] = system: Phosphatidylinositol 4,5-bisphosphate 3-kinase catalytic subunit alpha isoform (Homo sapiens), P42336 [E542K]; details: Compound concentration 1000.0 nM
Chain of Phosphatidylinositol 4,5-bisphosphate 3-kinase catalytic subunit alpha isoform (Homo sapiens), P42336 [E542K] (P42336 whole entry E542K, canonical isoform): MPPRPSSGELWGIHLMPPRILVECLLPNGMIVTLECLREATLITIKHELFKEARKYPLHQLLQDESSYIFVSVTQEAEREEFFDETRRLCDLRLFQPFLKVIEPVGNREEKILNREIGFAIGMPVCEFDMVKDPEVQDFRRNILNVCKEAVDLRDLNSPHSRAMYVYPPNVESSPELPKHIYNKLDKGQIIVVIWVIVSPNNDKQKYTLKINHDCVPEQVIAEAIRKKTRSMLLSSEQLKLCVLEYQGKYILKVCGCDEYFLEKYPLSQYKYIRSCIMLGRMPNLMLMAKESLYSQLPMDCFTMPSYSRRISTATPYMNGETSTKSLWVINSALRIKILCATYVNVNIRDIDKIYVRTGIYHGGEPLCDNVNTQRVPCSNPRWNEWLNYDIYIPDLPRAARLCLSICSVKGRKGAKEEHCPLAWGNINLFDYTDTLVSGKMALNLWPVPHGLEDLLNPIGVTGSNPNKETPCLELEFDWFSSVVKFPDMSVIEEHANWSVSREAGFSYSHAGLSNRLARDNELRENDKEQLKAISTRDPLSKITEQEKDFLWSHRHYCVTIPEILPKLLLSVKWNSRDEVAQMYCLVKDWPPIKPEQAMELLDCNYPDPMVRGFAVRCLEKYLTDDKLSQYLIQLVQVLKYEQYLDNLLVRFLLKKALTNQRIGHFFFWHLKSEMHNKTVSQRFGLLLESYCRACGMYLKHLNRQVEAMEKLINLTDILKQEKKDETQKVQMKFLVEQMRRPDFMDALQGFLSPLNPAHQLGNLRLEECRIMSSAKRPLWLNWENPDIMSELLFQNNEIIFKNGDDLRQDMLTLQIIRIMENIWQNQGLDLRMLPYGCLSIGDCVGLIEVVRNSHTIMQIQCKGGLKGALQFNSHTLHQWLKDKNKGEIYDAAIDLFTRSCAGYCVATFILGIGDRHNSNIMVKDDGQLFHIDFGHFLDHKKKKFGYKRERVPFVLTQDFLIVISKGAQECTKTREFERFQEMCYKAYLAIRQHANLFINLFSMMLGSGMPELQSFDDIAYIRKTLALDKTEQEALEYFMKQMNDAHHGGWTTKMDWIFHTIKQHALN

[18] = biological target: Mitogen-activated protein kinase kinase kinase 20 (Homo sapiens) (UniProt Q9NYL2); details: Compound concentration 1000.0 nM
[19] = biological target: NUAK family SNF1-like kinase 2 (Homo sapiens) (UniProt Q9H093); details: Compound concentration 1000.0 nM
Chain of NUAK family SNF1-like kinase 2 (Homo sapiens) (Q9H093 whole entry): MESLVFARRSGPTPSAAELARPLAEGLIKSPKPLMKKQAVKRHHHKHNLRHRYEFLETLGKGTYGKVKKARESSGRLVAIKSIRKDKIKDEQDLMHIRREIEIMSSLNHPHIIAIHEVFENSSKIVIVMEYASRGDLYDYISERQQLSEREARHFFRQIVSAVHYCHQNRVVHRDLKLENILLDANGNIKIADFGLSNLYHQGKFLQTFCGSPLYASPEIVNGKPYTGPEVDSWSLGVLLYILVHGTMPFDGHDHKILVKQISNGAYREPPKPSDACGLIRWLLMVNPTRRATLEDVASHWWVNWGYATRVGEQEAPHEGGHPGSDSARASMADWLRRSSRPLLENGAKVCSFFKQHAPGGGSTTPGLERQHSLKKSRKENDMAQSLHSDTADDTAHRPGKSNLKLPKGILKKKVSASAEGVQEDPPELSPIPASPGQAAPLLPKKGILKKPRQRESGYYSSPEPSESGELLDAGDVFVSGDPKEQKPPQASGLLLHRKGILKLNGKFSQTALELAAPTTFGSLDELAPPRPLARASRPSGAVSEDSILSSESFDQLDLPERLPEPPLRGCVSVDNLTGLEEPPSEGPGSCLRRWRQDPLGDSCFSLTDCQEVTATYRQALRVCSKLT

[20] = biological target: Phosphatidylinositol 5-phosphate 4-kinase type-2 gamma (Homo sapiens) (UniProt Q8TBX8); details: Compound concentration 1000.0 nM
[21] = biological target: Peripheral plasma membrane protein CASK (Homo sapiens) (UniProt O14936); details: Compound concentration 1000.0 nM
[22] = biological target: Homeodomain-interacting protein kinase 4 (Homo sapiens) (UniProt Q8NE63); details: Compound concentration 1000.0 nM
[23] = biological target: Mitogen-activated protein kinase kinase kinase 7 (Homo sapiens) (UniProt O43318); details: Compound concentration 1000.0 nM
[24] = biological target: Interleukin-1 receptor-associated kinase 3 (Homo sapiens) (UniProt Q9Y616); details: Compound concentration 1000.0 nM
[25] = biological target: Tyrosine-protein kinase receptor TYRO3 (Homo sapiens) (UniProt Q06418); details: Compound concentration 1000.0 nM
[26] = system: Receptor-type tyrosine-protein kinase FLT3 (Homo sapiens), P36888 [D835Y]; details: Compound concentration 1000.0 nM
[27] = biological target: Proto-oncogene tyrosine-protein kinase ROS (Homo sapiens) (UniProt P08922); details: Compound concentration 1000.0 nM
[28] = biological target: Eukaryotic translation initiation factor 2-alpha kinase 1 (Homo sapiens) (UniProt Q9BQI3); details: Compound concentration 1000.0 nM
[29] = biological target: Dual specificity testis-specific protein kinase 1 (Homo sapiens) (UniProt Q15569); details: Compound concentration 1000.0 nM
Chain of Dual specificity testis-specific protein kinase 1 (Homo sapiens) (Q15569 whole entry, looked up): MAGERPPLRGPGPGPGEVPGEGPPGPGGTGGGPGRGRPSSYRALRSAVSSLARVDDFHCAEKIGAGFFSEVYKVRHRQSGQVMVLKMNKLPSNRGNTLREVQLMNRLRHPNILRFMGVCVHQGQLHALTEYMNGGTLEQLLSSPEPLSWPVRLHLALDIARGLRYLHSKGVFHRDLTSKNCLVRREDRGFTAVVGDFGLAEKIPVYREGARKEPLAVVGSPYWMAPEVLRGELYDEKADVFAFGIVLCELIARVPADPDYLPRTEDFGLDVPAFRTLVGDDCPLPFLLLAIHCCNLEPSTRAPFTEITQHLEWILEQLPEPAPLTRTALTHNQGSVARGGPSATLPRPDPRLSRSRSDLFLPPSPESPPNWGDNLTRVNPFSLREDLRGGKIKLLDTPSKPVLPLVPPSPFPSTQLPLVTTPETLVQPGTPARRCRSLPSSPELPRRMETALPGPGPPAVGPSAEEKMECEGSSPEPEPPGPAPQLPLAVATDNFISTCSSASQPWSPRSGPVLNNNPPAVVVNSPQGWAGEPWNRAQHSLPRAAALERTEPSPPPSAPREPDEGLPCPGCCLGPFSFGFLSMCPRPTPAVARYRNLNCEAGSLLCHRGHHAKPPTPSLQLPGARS

[30] = biological target: Serine/threonine-protein kinase WNK4 (Homo sapiens) (UniProt Q96J92); details: Compound concentration 1000.0 nM
[31] = biological target: Wee1-like protein kinase 2 (Homo sapiens) (UniProt P0C1S8); details: Compound concentration 1000.0 nM
[32] = biological target: Cyclin-G-associated kinase (Homo sapiens) (UniProt O14976); details: Compound concentration 1000.0 nM
Chain of Cyclin-G-associated kinase (Homo sapiens) (O14976 whole entry): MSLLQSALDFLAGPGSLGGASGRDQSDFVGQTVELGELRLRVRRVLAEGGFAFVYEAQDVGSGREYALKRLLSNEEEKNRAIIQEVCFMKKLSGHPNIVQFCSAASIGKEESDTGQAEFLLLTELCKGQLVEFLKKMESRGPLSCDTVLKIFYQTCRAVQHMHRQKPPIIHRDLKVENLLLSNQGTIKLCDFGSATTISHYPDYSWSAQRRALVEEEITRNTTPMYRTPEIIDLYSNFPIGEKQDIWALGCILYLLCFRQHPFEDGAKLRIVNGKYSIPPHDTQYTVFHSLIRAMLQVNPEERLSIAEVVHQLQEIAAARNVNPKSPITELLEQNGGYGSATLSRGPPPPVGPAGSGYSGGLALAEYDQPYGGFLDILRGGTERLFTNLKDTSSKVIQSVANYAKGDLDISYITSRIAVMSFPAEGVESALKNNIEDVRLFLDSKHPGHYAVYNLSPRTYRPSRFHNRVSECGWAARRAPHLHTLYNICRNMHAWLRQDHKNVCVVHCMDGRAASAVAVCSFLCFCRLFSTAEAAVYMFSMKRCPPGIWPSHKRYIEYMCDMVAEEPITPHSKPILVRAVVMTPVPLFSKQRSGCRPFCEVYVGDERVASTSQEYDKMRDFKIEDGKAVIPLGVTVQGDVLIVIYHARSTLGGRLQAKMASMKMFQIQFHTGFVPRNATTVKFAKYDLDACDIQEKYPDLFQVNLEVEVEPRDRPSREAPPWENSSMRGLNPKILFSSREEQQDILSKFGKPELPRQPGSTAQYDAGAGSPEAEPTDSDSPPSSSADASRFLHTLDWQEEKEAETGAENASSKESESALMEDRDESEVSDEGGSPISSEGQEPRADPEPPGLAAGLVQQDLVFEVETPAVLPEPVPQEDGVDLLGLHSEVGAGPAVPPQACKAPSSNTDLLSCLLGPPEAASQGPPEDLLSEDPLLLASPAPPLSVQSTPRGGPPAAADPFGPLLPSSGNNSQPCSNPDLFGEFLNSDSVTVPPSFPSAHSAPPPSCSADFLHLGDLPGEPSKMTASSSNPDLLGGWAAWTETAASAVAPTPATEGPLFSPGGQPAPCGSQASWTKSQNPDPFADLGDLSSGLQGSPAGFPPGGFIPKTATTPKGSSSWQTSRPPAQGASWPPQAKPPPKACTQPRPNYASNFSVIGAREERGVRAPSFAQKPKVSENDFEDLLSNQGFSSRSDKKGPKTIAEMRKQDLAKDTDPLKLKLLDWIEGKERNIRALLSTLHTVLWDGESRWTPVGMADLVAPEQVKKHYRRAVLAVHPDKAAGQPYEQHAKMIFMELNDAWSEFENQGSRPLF

[33] = system: Tyrosine-protein kinase ABL1 (Homo sapiens), P00519 [H396P]; details: Compound concentration 1000.0 nM
[34] = biological target: LIM domain kinase 2 (Homo sapiens) (UniProt P53671); details: Compound concentration 1000.0 nM
[35] = system: Proto-oncogene tyrosine-protein kinase receptor Ret (Homo sapiens), P07949 [V804M]; details: Compound concentration 1000.0 nM
[36] = biological target: 5-hydroxytryptamine receptor 2C (Homo sapiens) (UniProt P28335); details: Compound concentration 10.0 uM
[37] = biological target: Serine/threonine-protein kinase 25 (Homo sapiens) (UniProt O00506); details: Compound concentration 1000.0 nM
[38] = biological target: Serine/threonine-protein kinase PRP4 homolog (Homo sapiens) (UniProt Q13523); details: Compound concentration 1000.0 nM
Chain of Serine/threonine-protein kinase PRP4 homolog (Homo sapiens) (Q13523 whole entry): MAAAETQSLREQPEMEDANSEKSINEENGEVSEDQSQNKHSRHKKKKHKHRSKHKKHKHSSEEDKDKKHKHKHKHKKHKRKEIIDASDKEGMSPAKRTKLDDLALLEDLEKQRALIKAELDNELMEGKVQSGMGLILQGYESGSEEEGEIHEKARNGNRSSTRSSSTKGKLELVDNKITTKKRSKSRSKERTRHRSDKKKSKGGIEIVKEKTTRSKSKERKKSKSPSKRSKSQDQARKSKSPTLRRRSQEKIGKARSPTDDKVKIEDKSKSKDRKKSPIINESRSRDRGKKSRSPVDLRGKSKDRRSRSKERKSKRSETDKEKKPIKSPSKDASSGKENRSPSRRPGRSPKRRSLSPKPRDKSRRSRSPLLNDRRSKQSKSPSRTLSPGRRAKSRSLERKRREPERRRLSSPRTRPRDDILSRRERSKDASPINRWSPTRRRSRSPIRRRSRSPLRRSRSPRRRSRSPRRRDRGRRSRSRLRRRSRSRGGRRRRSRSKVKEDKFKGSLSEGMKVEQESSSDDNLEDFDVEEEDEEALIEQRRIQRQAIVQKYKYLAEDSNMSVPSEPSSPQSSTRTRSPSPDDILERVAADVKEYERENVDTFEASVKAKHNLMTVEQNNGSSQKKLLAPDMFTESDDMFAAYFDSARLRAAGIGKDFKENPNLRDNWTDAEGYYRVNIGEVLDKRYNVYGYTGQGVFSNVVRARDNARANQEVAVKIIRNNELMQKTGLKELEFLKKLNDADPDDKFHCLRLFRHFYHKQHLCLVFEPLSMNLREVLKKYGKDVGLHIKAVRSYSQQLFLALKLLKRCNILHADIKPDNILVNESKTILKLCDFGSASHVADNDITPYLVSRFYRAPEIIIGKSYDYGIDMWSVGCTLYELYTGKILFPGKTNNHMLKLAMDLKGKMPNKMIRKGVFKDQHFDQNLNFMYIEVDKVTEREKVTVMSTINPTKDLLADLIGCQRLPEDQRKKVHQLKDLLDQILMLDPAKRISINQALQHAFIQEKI

[39] = biological target: Serine/threonine-protein kinase BRSK1 (Homo sapiens) (UniProt Q8TDC3); details: Compound concentration 1000.0 nM
[40] = biological target: Serine/threonine-protein kinase DCLK1 (Homo sapiens) (UniProt O15075); details: Compound concentration 1000.0 nM
[41] = biological target: Serine/threonine-protein kinase mTOR (Homo sapiens) (UniProt P42345); details: Compound concentration 1000.0 nM
[42] = biological target: Protein-tyrosine kinase 6 (Homo sapiens) (UniProt Q13882); details: Compound concentration 1000.0 nM
[43] = system: Receptor-type tyrosine-protein kinase FLT3 (Homo sapiens), P36888 [D835V]; details: Compound concentration 1000.0 nM
[44] = biological target: Dual specificity protein kinase CLK1 (Homo sapiens) (UniProt P49759); details: Compound concentration 1000.0 nM
[45] = biological target: MAP kinase-activated protein kinase 5 (Homo sapiens) (UniProt Q8IW41); details: Compound concentration 1000.0 nM

COc1cc(-c2cn([C@H]3CCc4c(F)cccc4N(CC(F)(F)F)C3=O)nn2)ccc1-n1cnc(C)c1
inactive: residual activity [1] 82% | residual activity [2] 100% | residual activity [3] 100% | residual activity [4] 100% | residual activity [5] 100% | residual activity [6] 100% | residual activity [7] 100% | residual activity [8] 87% | residual activity [9] 100% | residual activity [10] 100% | residual activity [11] 100% | residual activity [12] 91% | residual activity [13] 100% | residual activity [14] 100% | residual activity [15] 100% | residual activity [16] 100% | residual activity [17] 88% | residual activity [18] 100% | residual activity [19] 100% | residual activity [20] 100% | residual activity [21] 71% | residual activity [22] 100% | residual activity [23] 100% | residual activity [24] 100% | residual activity [25] 100% | residual activity [26] 86% | residual activity [27] 100% | residual activity [28] 100% | residual activity [29] 100% | residual activity [30] 100% | residual activity [31] 100% | residual activity [32] 88% | residual activity [33] 100% | residual activity [34] 100% | residual activity [35] 88% | inhibition [36] 27.6% | residual activity [37] 100% | residual activity [38] 100% | residual activity [39] 92% | residual activity [40] 100% | residual activity [41] 100% | residual activity [42] 100% | residual activity [43] 97% | residual activity [44] 77% | residual activity [45] 100%

COc1cc(-c2cn([C@H]3CCc4ccccc4N(CC(F)(F)F)C3=O)nn2)ccc1-n1ccc(C)n1
inactive: residual activity [1] 65% | residual activity [2] 100% | residual activity [3] 82% | residual activity [4] 97% | residual activity [5] 100% | residual activity [6] 100% | residual activity [7] 86% | residual activity [8] 78% | residual activity [9] 100% | residual activity [10] 90% | residual activity [11] 88% | residual activity [12] 100% | residual activity [13] 100% | residual activity [14] 100% | residual activity [15] 100% | residual activity [16] 100% | residual activity [17] 82% | residual activity [18] 85% | residual activity [19] 88% | residual activity [20] 100% | residual activity [21] 80% | residual activity [22] 100% | residual activity [23] 86% | residual activity [24] 91% | residual activity [25] 100% | residual activity [26] 92% | residual activity [27] 100% | residual activity [28] 93% | residual activity [29] 93% | residual activity [30] 100% | residual activity [31] 100% | residual activity [32] 92% | residual activity [33] 70% | residual activity [34] 100% | residual activity [35] 100% | inhibition [36] 16.9% | residual activity [37] 100% | residual activity [38] 93% | residual activity [39] 81% | residual activity [40] 100% | residual activity [41] 100% | residual activity [42] 100% | residual activity [43] 80% | residual activity [44] 87% | residual activity [45] 91%
